Laboratory results from paper PMC4467461, “Small-molecule activation of SERCA2a SUMOylation for the treatment of heart failure” (Nature Communications, 2015).

Tests used:
[1] = test system: mouse heart tissue (sham and TAC); assay: Molecular analysis of heart tissue of N106-infused mice (western blot, immunoprecipitation, ATPase activity); assay type: in vivo
Procedure: Protein extracts (20∼50 μg) were obtained from isolated cardiomyocytes, which was lysed in RIPA buffer (R&D Systems Inc., MN, USA) contained protease inhibitors (Complete mini, Roche Diagnostics, IN, USA) and 20 mM NEM (Sigma-Aldrich). For SERCA2a SUMOylation assays, cardiac protein extracts were immunoprecipitated with a SUMO-1 agarose resin (Santa Cruz Biotechnology Inc., CA, USA) for overnight at 4 °C. The resins were washed with cold lysis buffer three times. The immunocomplexes were then resolved by SDS–PAGE and western blot analysis was performed using a SERCA2a-specific antibody. For general western blotting, cardiac proteins (10∼50 μg) were separated on SDS–PAGE gel, transferred to nitrocellulose membrane (Bio-Rad, CA, USA) and blotted with the following primary antibodies: SUMO-1 (1:1,000, R&D Systems Inc.), Ubc9 (1:1,000, R&D Systems Inc.), SAE2 (1:1,000, Abcam Inc., MA, USA), SERCA2a (1:3,000, 21st Century Biochemicals, MA, USA), PLN (1:5,000, Badrilla Ltd., UK), PLN phosphorylation at serine-16 (1:5,000, Badrilla Ltd.), RyR2 (1:5,000, Abcam Inc.), NCX (1:1,000, Novus Biologicals, CO, USA), glyceraldehyde 3-phosphate (1:10,000, Sigma-Aldrich), GATA4 (1:1,000, Millipore, NY, USA) and Sp1 (1:500, Millipore). Secondary antibodies anti-mouse IgG-HRP (1:10,000) and anti-rabbit IgG-HRP (1:10,000) were purchased from Sigma-Aldrich. The immunoreactive bands were visualized by a supersignal chemiluminescence detection reagent (Pierce Biotechnology, IL, USA). Full scans of western blots are presented in Supplementary Fig. 14.
SERCA2a ATPase activity was determined using a coupled enzymes assay including pyruvate kinase/lactate dehydrogenase/NADH-coupled reactions. Microsomes were enriched by differential density centrifugation. The cardiac cells and tissues were homogenized on ice in homogenization buffer (250 mM sucrose (Sigma-Aldrich), 5 mM HEPES pH7.0 (Sigma-Aldrich), 1 mM phenylmethyl sulfonyl fluoride (Sigma-Aldrich), protease inhibitor cocktail (Roche Life Science, IN, USA)). The homogenates were centrifuged at 1,000g for 10 min at 4 °C, then the supernatants were collected and centrifuged at 12,000g for 15 min at 4 °C. The supernatants were transferred to ultracentrifuge tubes and centrifuged for 1 h at 140,000g at 4 °C (Optima XE-100, Beckman Coulter). The pellets were resuspended in homogenization buffer to determine protein concentration and calcium-dependent ATPase activity assay. Protein concentration was measured with a 2-D Quant Kit (GE Healthcare Life Sciences, PA, USA). The ATPase activity were measured at 25 °C in 50 mM MOPS (Boston Bioproducts, MA, USA), 100 mM KCl (Boston Bioproducts), 5 mM MgCl2 (Boston Bioproducts), 1 mM EDTA (Boston Bioproducts) at pCa 5.0 by using a coupled enzyme system consisting of pyruvate kinase and lactate dehydrogenase, and monitoring the oxidation of the reduced form of NADH at […].
Supplementary Figure 9. Molecular analysis in N106 treated mice. (a-d) Representative western blots and protein quantification of select cardiac proteins. Mice heart tissue samples were obtained after external jugular vein infusion with vehicle or 10 mg.kg-1of N106 from sham and TAC mice. The experiments shown are representative of three independent Western blots with […]
(also on this page, place not known: TACSham TACSham TACSham SUMO-1 Conjugates (relative fold) N106Vehicle TACSham Veh RyR2/GAPDH (relative fold)Vehicle N106Vehicle Veh TACSham Veh 0.5 NCX/GAPDH (relative fold) NSNS N106Vehicle N106Vehicle N106Vehicle 200ATPase activity (% of control)Vehicle N106Vehicle TAC PLN/GAPDH (relative fold) P-PLN/PLN (relative fold) MW) […]
similar results. (e) The enzyme activity of SERCA2a was determined by using the same set of heart tissue samples. (f) SUMO-1 conjugate was measured by Western blot analysis with an anti-SUMO-1 antibody. Band intensity was quantified by Image J software. The amount of GAPDH was used as a normalization control. […]

[2] = test system: Serca2 KO mice; assay: Invasive P–V loop haemodynamics in cardiac-specific Serca2a knockout mice; assay type: in vivo
Procedure: Figure 5 Lack of effects of N106 on haemodynamic parameters in cardiac-specific Serca2a knockout mice. Systolic and diastolic function was determined in conditional cardiac-specific Serca2a knockout mice by pressure–volume analysis. […] There was no significant change in haemodynamic parameters with N106 treatment after a single dose (1 mg kg^−1) (a-f) and different doses (0.1, 1 and 10 mg kg^−1) (g,h). Data are represented as mean±s.e.m. n=3∼8 mice per each condition. NS, not significant; Student’s t-test.
One day after echocardiography, we performed in-vivo haemodynamics. The mice were anaesthetized with an intraperitoneal injection mixture of urethane (1 mg g^−1), etomidate (10 μg g^−1) and morphine (1 μg g^−1), and were then intubated via a tracheotomy and mechanically ventilated at 7 μl g^−1 tidal volume and 120 respirations per minute. A small incision was made in the apex and a French Millar cathether connected a high-fidelity pressure transducer (Scisense, London, ON, Canada) inserted into the LV. Haemodynamic recordings were performed after 5∼10 min of stable HR. The rate of pressure rise (+dP/dt) and maximal pressure, the time constant of isovolumic relaxation and HR were recorded and analysed. To determine the relative effects of the admittance and conductance techniques to contractility change induced by N106 compound infusion, whole haemodynamic function was recorded at both baseline and after administration of N106 compound through the external jugular vein. N106 compound was solubilized in 10% DMSO (Sigma-Aldrich), 10% Tween-80 (Sigma-Aldrich) and saline for in-vivo experiments. N106 or vehicle solutions were continuously infused through the external jugular vein at a rate of 50 μl min^−1 for 2 min in each dose. Whole haemodynamic functions of increasing dose of N106 of each mouse were recorded for ∼4 h. Each dose of N106 solution was infused after back to baseline of heart function.

[3] = Serca2a knockout mice, 1 mg kg^−1

COc1ccc(-c2nnc(Nc3nc4c(OC)cccc4s3)o2)cc1 [Compound N106, N-(4-methoxybenzo[d]thiazol-2-yl)-5-(4-methoxyphenyl)-1,3,4-oxadiazol-2-amine]
GATA4 SUMOylation and its protein levels ([1]; 10 mg kg^−1): no significant effect
protein levels of Sp1 ([1]; 10 mg kg^−1): not changed
SERCA2a protein levels ([1]; 10 mg kg^−1 infusion): not significantly changed
protein levels and phosphorylation states of phospholamban ([1]; 10 mg kg^−1 infusion): Neither protein levels nor phosphorylation states of phospholamban were changed
protein levels of cardiac ryanodine receptor and sodium–calcium exchanger ([1]; 10 mg kg^−1 infusion): not significant changes
whole SUMO-1 conjugates ([1]; 10 mg kg^−1 infusion): not significantly changed
SUMOylated specificity protein 1 (Sp1) form ([1]; TAC heart, 10 mg kg^−1): significantly induced
SUMOylation of SERCA2a versus vehicle control ([1]; TAC hearts, 10 mg kg^−1): significantly increased
SERCA2a’s ATPase activity versus vehicle-treated hearts ([1]; TAC hearts, 10 mg kg^−1 (P=0.06)): somewhat higher
SUMOylation of SERCA2a versus vehicle control ([1]; sham-operated group, 10 mg kg^−1 (P=0.07)): increasing trend
improvements in haemodynamic parameters ([2]; Serca2 KO, 1 mg kg^−1 and 0.1, 1 and 10 mg kg^−1): did not induce any improvements
+dP/dtmax [2, 3]: 2917.8±412.9 mm Hg s^−1
HR [2, 3]: 311.2±16.1 bpm
Pmax [2, 3]: 75.0±4.4 mm Hg
τ [2, 3]: 11.2 ± 1.0 ms
ESPVR slope ([2]; Serca2a knockout mice, 1 mg kg^−1 via jugular vein): 3.9±0.7 mm Hg μl^−1
